# Source: patent US8263637B2, “Methods for treatment of multiple myeloma using cyclopropane carboxylic acid {2-[(is)-1-(3-ethoxy-4-methoxy-phenyl)-2-methanesulfonyl-ethyl]-3-oxo-2,3-dihydro-1 h-isoindol-4-yl}-amide” (Celgene Corporation, priority 2002, dated 2012)
# Columns and labels:
# [1] = Cardiovascular and respiratory function in anesthetized dogs; format: in vivo, Beagle dogs
# Method: The effects of 3-(3,4-dimethoxy-phenyl)-3-(1-oxo-1,3-dihydro-isoindol-2-yl)-propionamide on cardiovascular and respiratory function are investigated in anesthetized dogs. Two groups of Beagle dogs (2/sex/group) are used. One group receives three doses of vehicle only and the other receives three ascending doses of the compound (200, 400, and 800 mg/kg). In all cases, doses of the compound or vehicle are successively administered via infusion through the jugular vein separated by intervals of at least 30 minutes.
# The cardiovascular and respiratory changes induced by 3-(3,4-diethoxy-phenyl)-3-(1-oxo-1,3-dihydro-isoindol-2-yl)-propionamide are minimal at all doses when compared to the vehicle control group.
# TNF-α production = experiment: Inhibition of TNF-α production following LPS-stimulation of human PBMC and human whole blood; format: cell-based; settings: in vitro studies; relative to thalidomide
# From the text: In a specific embodiment, the pharmacological properties of 3-(3,4-dimethoxy-phenyl)-3-(1-oxo-1,3-dihydro-isoindol-2-yl)-propionamide are characterized in in vitro studies. Studies examine the effects of the compound on the production of various cytokines. Inhibition of TNF-α production following LPS-stimulation of human PBMC and human whole blood by the compound is investigated in vitro. […] The pharmacological effects of 3-(3,4-dimethoxy-phenyl)-3-(1-oxo-1,3-dihydro-isoindol-2-yl)-propionamide may derive from its action as an inhibitor of the generation of inflammatory cytokines.
structure (smiles),measurement,setting,value
"COc1ccc(C(CC(N)=O)N2Cc3ccccc3C2=O)cc1OC (stereo not drawn) [3-(3,4-dimethoxy-phenyl)-3-(1-oxo-1,3-dihydro-isoindol-2-yl)-propionamide]",cardiovascular and respiratory changes compared to the vehicle control group,"[1]; all doses (200, 400, and 800 mg/kg), infusion through the jugular vein",minimal
same,"deviations in femoral blood flow, respiratory parameters, and Qtc interval",[1]; common to both the control and treated groups,not considered treatment-related
same,arterial blood pressure effect at higher doses,[1]; higher doses,not seen
same,duration of the arterial blood pressure effect,[1]; low dose,approximately 15 minutes
same,"arterial blood pressure, difference between vehicle and treatment groups","[1]; low dose, statistically significant",small increase
same,"pharmacological activity profile, times more potent than thalidomide",TNF-α production,five to fifty
